Experiment: Blood brain penetration assay (in situ brain perfusion)
Assay type: in vivo
Settings: rat in situ brain perfusion, 5 μM, 1 min, left cerebrum
Protocol: Studies of transport of the compounds of Formula I were carried out in accordance with an in situ brain perfusion technique disclosed in “Methods in Molecular medicine, Vol. 89, pp209-218, by Quentin R. Smith and David D. Allen
Anesthesia: Cocktail of 90 mg/kg ketamine/9 mg/kg xylazine was given at a volume of […] as i.m. injection.
Surgery and perfusion: The left common carotid artery was cannulated, the chest opened and the heart severed. The brain was perfused at 10 ml/min for a predetermined duration of time, followed by post-perfusion with perfusion solution for 30 seconds.
A stock solution of the test drug was prepared as a solution of […] in DMSO.
C. Treatment • 1. Three rats per group were infused with the study compounds or a control compound via the left common carotid artery. • 2. Brain and perfusion solution samples were obtained at the end of the perfusions. D. Sample Collection • 1. Brains were collected and the left hemispheres or regions thereof were segmented and flash frozen in liquid nitrogen. • 2. A sample of the perfusion solution was also taken after each perfusion into an Eppendorf tube, and stored at −80° C. in separate container from the brain samples. • 3. When necessary, prior to the perfusion, blood samples were collected in tubes prepared with study anticoagulant. Whole blood was centrifuged at 8000 rpm for 3 minutes. Plasma was collected into Eppendorf tubes and frozen at −80° C. in separate container from the brain samples. E. Analytical and Data Analysis
Concentrations of study and marker compounds in all samples was measured using LC/MS-MS (and/or LC-UV technique when applicable) and permeability kinetics were determined.

In the case of CN(C)CCCN1c2ccccc2Sc2ccc(Cl)cc21 [Chlorpromazine, reference compound], the “rate of penetration of the blood brain barrier” value (from here on “rate”) is reported as 61.5 pmol/g/s.
In the case of O=C(CS(=O)(=O)O)NCc1nc(NC2CCCC2)c2ncn([C@@H]3O[C@H](CO)[C@@H](O)[C@H]3O)c2n1 [Example 6B, N-({9-[(4S,2R,3R,5R)-3,4-dihydroxy-5-(hydroxymethyl)oxolan-2-yl]-6-(cyclopentylamino)purin-2-yl}methyl)carbamoylmethylsulfonic acid], the “rate” value is reported as 0.10 pmol/g/s.
In the case of O=C(NCc1nc(NC2CCCC2)c2ncn([C@@H]3O[C@H](CO)[C@@H](O)[C@H]3O)c2n1)c1ccc(S(=O)(=O)O)cc1 [Example 6A, 4-[N-({9-[(4S,2R,3R,5R)-3,4-dihydroxy-5-(hydroxymethyl)oxolan-2-yl]-6-(cyclopentylamino)purin-2-yl}methyl)carbamoyl]benzenesulfonic acid], the “rate” value is reported as 0.015 pmol/g/s.
